{
  "source": "ChEMBL document CHEMBL1811754",
  "about": "“Sesquiterpene and xanthone derivatives from the sea fan-derived fungus Aspergillus sydowii PSU-F154” (J Nat Prod, 2011)",
  "tested_on": "Radical scavenging activity",
  "assay": "Antioxidant activity assessed as DPPH radical scavenging activity after 30 mins by spectrophotometry",
  "assay_type": "functional",
  "note": "The source made the active and inactive calls. The calls are words filed in the database; no cut-off is given here.",
  "data": [
    {"smiles": "C/C(=C\\CCC(C)C)c1ccc(CO)cc1O", "values": [
      {"measurement": "Activity", "value": "inactive"}
    ]},
    {"smiles": "O=C1N[C@@H](Cc2c[nH]c3ccccc23)C(=O)N[C@H]1Cc1ccccc1", "values": [
      {"measurement": "Activity", "value": "inactive"}
    ]},
    {"smiles": "COC(=O)[C@@]1(O)c2c(oc3cc(C)cc(O)c3c2=O)CC[C@H]1O", "values": [
      {"measurement": "Activity", "value": "inactive"}
    ]},
    {"smiles": "Cc1c(CCC(C)C)oc2cc(C(=O)O)ccc12", "values": [
      {"measurement": "Activity", "value": "inactive"}
    ]},
    {"smiles": "COC(=O)c1c(O)ccc2oc3cc(CO)cc(O)c3c(=O)c12", "values": [
      {"measurement": "Activity", "value": "inactive"}
    ]},
    {"smiles": "COC(=O)c1cccc2oc3cc(C)cc(O)c3c(=O)c12", "values": [
      {"measurement": "Activity", "value": "inactive"}
    ]},
    {"smiles": "CO[C@@](C)(CCCC(C)C)c1ccc(C(=O)O)cc1O", "values": [
      {"measurement": "Activity", "value": "inactive"}
    ]},
    {"smiles": "COC(=O)[C@@H]1c2c(oc3cc(CO)cc(O)c3c2=O)C=C[C@H]1O", "values": [
      {"measurement": "IC50", "value": 17, "unit": "µM"}
    ]},
    {"smiles": "COC(=O)c1cccc2oc3cc(CO)cc(O)c3c(=O)c12", "values": [
      {"measurement": "Activity", "value": "inactive"}
    ]}
  ]
}
